Test results from patent US20260273059A1, “METHODS OF EVADING IMMUNE REJECTION” (William Marsh Rice University, priority 2023, published 2026).

System: cytokine producing, kill switch inducible cell line
Assay: Small molecule inducible kill switch
Assay type: cell-based
Conditions: 100 nM
From the text: Cell engineering for cells equipped with a small molecule inducible kill switch consist of a base epithelial cell line and a highly modular PiggyBAC transposon system. This vector system is composed of a strong promotor that is constitutively expressed, a kozak translation initiation sequence, the gene of interest (any cytokine, chemokine, or other protein), an internal ribosome entry site, a kill switch gene, a puromycin resistance gene and a poly-A tail in between two inverted terminal repeat sequences. Variation to this system requires only gene of interest swapping and allows for quick and easy “plug and play” cell engineering. The kill switch can be added to enhance the safety of cells engineered to produce the following cytokines: IL-1, IL-1a, IL-1b, IL-1RA, IL-2, IL-4, IL-5, IL-6, IL-7, IL-8, IL-9, IL-10, IL-11, IL-12, IL-12a, IL-12b, IL-13, IL-14, IL-15, IL-16, IL-17, IL-20, IFN-α, IFN-b, IFN-c, TNF-α, TNF-b, TGF-b, CCL-1, CCL-2, CCL-3, CCL-4, CCL-5, CCL-6, CCL-7, CCL-8, CCL-9, CCL-10, CCL-11, CCL-12, CCL-13, CCL-14, CCL-15, CCL-16, CCL-18, CCL-19, CCL-20, CCL-21, CCL-22, CCL-23, CCL-24, CCL-25, CCL-26, CCL-27, CCL-28, CXCL1, CXCL2, CXCL3, CXCL4, CXCL5, CXCL6, CXCL7, CXCL8, CXCL9, CXCL10, CXCL11, CXCL12, CXCL13, CXCL14, CXCL15, CXCL16, CXCL17. […]

Q: How did the “time in which the kill switch inducible cell line responds” value turn out when `CC[C@H](C(=O)N1CCCC[C@H]1C(=O)O[C@H](CCc1ccc(OC)c(OC)c1)c1cccc(OCC(=O)NCCNC(=O)COc2cccc([C@@H](CCc3ccc(OC)c(OC)c3)OC(=O)[C@@H]3CCCCN3C(=O)[C@@H](CC)c3cc(OC)c(OC)c(OC)c3)c2)c1)c1cc(OC)c(OC)c(OC)c1` [AP1903, rimiducid] was run?
A: less than 24 hours
